EC50 data for 54 molecules are collected here from ChEMBL document CHEMBL1158183, “Use of self-organizing maps and molecular descriptors to predict the cytotoxic activity of sesquiterpene lactones” (2008).

The structures appear in SMILES notation. pEC50: −log10 of the molar value.

The test system of this test is KB. Put plainly: Cytotoxicity against human KB cells. The test is classed as functional. The settings on record: read-out: ED50 (the source's name).
For `C=C1C(=O)O[C@H]2C[C@@]3(CO3)[C@@H]3C[C@H](OC(C)=O)C(=C)[C@]3(O)C[C@H]12` [ARCTOLIDE], the pEC50 is 4.54.
Turning to `C=C1C(=O)O[C@H]2[C@H]1[C@H](OC(=O)/C(C)=C\C)C[C@]1(CO1)[C@@H]1[C@H](O)[C@H]3O[C@@]3(C)[C@]21O` [EUPATOROXIN], the pEC50 is 5.15.
As for `C=C(C)C(=O)O[C@H]1CC2=C[C@@H](C[C@@]3(C)O[C@@H]3[C@H]3OC(=O)C(=C)[C@@H]31)OC2=O` [ELEPHANTOPIN], the pEC50 was 5.60.
Regarding `C=C1C(=O)O[C@@H]2/C=C(/C)[C@@H](OC(C)=O)C[C@H](O)/C(C)=C\[C@@H](OC(=O)[C@]3(C)O[C@@H]3C)[C@@H]12` [EUPACUNOXIN], the pEC50 is 5.30.
As for `C=C1C(=O)O[C@@H]2/C=C(/CO)[C@@H](OC(C)=O)C[C@H](O)/C(C)=C\[C@@H](OC(=O)/C(C)=C/C)[C@@H]12` [EUPACUNOLIN], the pEC50 is 5.06.
Regarding `C=C1[C@@H]2[C@H]3OC(=O)C(=C)[C@@H]3CCC(=C)[C@H]2C[C@@H]1OC(=O)C=C(C)C` [VERNOFLEXIN], the pEC50 was 5.37.
As for `C=C1C(=O)O[C@H]2[C@H]1[C@H](OC(=O)/C(C)=C\C)CC(=C)[C@@H]1[C@H](O)[C@H]3O[C@@]3(C)[C@@]12O` [EUPATUNDIN], the pEC50 is 5.98.
In the case of `C=C1C(=O)O[C@H]2[C@H]1[C@H](OC(=O)/C(C)=C\C)C[C@](O)(CCl)[C@@H]1[C@H](OC(C)=O)C=C(C)[C@]21O` [EUPACHLORIN ACETATE], the pEC50 is 6.46.
Regarding `C=C1C(=O)O[C@H]2[C@H]1[C@H](OC(=O)/C(C)=C\C)C[C@](O)(CCl)[C@@H]1[C@H](O)C=C(C)[C@]21O` [EUPACHLORIN], the pEC50 was 6.29.
As to `C=C1C(=O)O[C@@H]2/C=C(\C)[C@@H](OC(C)=O)C/C=C(\C)C(OC(=O)[C@]3(C)O[C@@H]3C)C(O)[C@@H]12` (some centres undefined) [EUPATOCUNOXIN], the pEC50 was 5.39.
In the case of `C=C1C(=O)O[C@H]2/C=C(\C)C(=O)C/C=C(/C)C[C@H](OC(=O)/C(C)=C\C)[C@@H]12` [DEHYDRONOBILIN] it was 5.57; in that of `C=C1C(=O)O[C@H]2C=C(C)[C@H]3[C@@H](OC(C)=O)C[C@@](C)(O)[C@@H]3C[C@H]12` [GAILLARDIN], 5.12; in that of `C=C1C(=O)O[C@@H]2/C=C(\CO)CC/C=C(\C)C[C@H](O)[C@@H]12` [SALONITENOLIDE], 5.04.
Regarding `C=C1[C@@H]2[C@H]3OC(=O)C(=C)[C@@H]3CCC(=C)[C@@H]2C[C@@H]1O[C@@H]1O[C@H](CO)[C@@H](O)[C@H](O)[C@H]1O` [VERNOFLEXUOSIDE], the pEC50 was 4.72.
In the case of `C=C1C(=O)O[C@H]2C[C@H](C)[C@@H]3CC(=O)C(C)=C3C[C@H]12` [XERANTOLIDE] it was 5.21; in that of `C=C1C(=O)O[C@H]2C[C@@]3(C)O[C@@H]3CC/C(C(=O)OC)=C\C[C@H]12` [HIRUSUTOLIDE], 5.15.
As for `C=C1C(=O)O[C@H]2C[C@@H](C)[C@@H]3C=CC(=O)[C@@]3(C)C[C@H]12` [AROMATICIN], the pEC50 is 5.86.
For the molecule `C=C1C(=O)O[C@@H]2[C@H]3C(CO)=CC(=O)C3=C(C)C[C@@H](O)[C@@H]12` [LACTUCIN], the pEC50 was 3.59.
In the case of `C=C[C@@]12COC(=O)C(=C)[C@@H]1[C@@H](O)[C@@H]1C(=C)C(=O)O[C@H]1C2` [VERNOMENIN] it was 3.90.
As for `C=C1C(=O)O[C@@H]2[C@H]1CC[C@H](C)[C@]1(O)CCC(=O)[C@@]21C` [CORONOPILIN], the pEC50 was 5.26.
On to `C=C1C(=O)O[C@@H]2/C=C(\C)CC/C=C(/C)C[C@@H](OC(=O)/C(=C/CO)CO)[C@@H]12` [EUPATORIOPICRIN], for which the pEC50 was 5.48.
As to `C=C1C(=O)O[C@@H]2[C@H]1CC[C@H](C)[C@]1(O)C=CC(=O)[C@@]21C` [PARTHENIN], the pEC50 is 5.89.
Take `C=C1C(=O)O[C@@H]2[C@H]1CC[C@H](C)[C@@H]1C[C@@H](O)C(=O)[C@@]21C`: the pEC50 is 5.00.
On to `C=C1C(=O)O[C@@H]2[C@H]1CC[C@H](C)[C@@H]1C=CC(=O)[C@@]21C` [AMBROSIN], for which the pEC50 is 5.74.
On to `C=C1C(=O)O[C@@H]2/C=C(\C)CC/C=C(\C)C[C@@H](O)[C@@H]12` [EUPATOLIDE], for which the pEC50 is 5.30.
In the case of `C=C[C@]12COC(=O)C(=C)[C@H]1[C@H](OC(C)=O)[C@H]1C(=C)C(=O)O[C@@H]1C2` [VERNOMENIN ACETATE], the pEC50 is 4.58.
`C=C1C(=O)O[C@@H]2/C=C(\C)[C@@H](OC(C)=O)C/C=C(/C)C(O)[C@@H](OC(=O)/C(C)=C\C)[C@@H]12` (some centres undefined) [EUPATOCUNIN]: the pEC50 was 6.57.
Consider `C=C1C(=O)O[C@@H]2/C=C(\CO)CC/C=C(\CO)C[C@H](OC(=O)C(C)C)[C@@H]12` [ALATOLIDE], for which the pEC50 is 5.40.
In the case of `C=C1C(=O)O[C@H]2[C@H]1[C@H](OC(=O)/C(C)=C/C)C[C@]1(CO1)[C@@H]1[C@H](O)C=C(C)[C@]21O` [EUPAROTIN] it was 6.25; in that of `C=C1C(=O)O[C@H]2CC3=C[C@@H](C[C@]4(C)O[C@@H]4[C@@H](O)[C@H]12)OC3=O` [ELEPHANTOL], 3.91.
In the case of `C=C1C(=O)O[C@@H]2/C=C(/C)[C@@]3(O)C=C[C@@](C)(C[C@@H](OC(=O)/C(=C\C)COC(C)=O)[C@@H]12)O3` [LIATRIN] it was 5.41.
Take `C=C1C(=O)O[C@H]2C/C(C)=C/C[C@@H](OC(C)=O)/C(C)=C/[C@@H](OC(C)=O)[C@@H]12` [CHAMMISSONIN DIACETATE]: the pEC50 is 5.21.
Regarding `C=C1C(=O)O[C@@H]2[C@H]3C(CO)=CC(=O)C3=C(C)CC[C@@H]12` [DEOXYLACTUCIN], the pEC50 was 5.51.
In the case of `C=C[C@@]12COC(=O)C(=C)[C@@H]1[C@H]1OC(=O)C(=C)[C@@H]1[C@@H](OC(=O)C(=C)CO)C2` [VERNODALIN], the pEC50 is 5.30.
Take `C=C1C(=O)O[C@H]2C[C@@H](C)[C@@H]3C=CC(=O)[C@@]3(C)[C@H](OC(C)=O)[C@H]12` [LINIFOLIN A]: the pEC50 was 5.70.
Regarding `C=C1C(=O)O[C@H]2[C@H]1[C@H](OC(=O)/C(C)=C\C)C[C@](O)(CCl)[C@@H]1[C@H](O)[C@H]3O[C@@]3(C)[C@]21O` [EUPACHLOROXIN], the pEC50 was 5.08.
As for `C=C1C(=O)O[C@@H]2/C=C(/C)[C@@H](O)C[C@H]3O[C@]3(C)C[C@@H](OC(=O)/C(C)=C\C)[C@@H]12` [EPOXYNOBILIN], the pEC50 was 6.00.
On to `C=C1C(=O)O[C@@H]2C3O[C@]3(C)CC/C=C(\C)CC[C@@H]12` (some centres undefined), for which the pEC50 was 5.28.
For the molecule `C=C[C@@]12COC(=O)C(=C)[C@@H]1[C@H]1OC(=O)C(=C)[C@@H]1[C@@H](OC(=O)C(=C)C)C2` [VERNOLEPIN METHACRYLATE], the pEC50 was 5.91.
Then `C=C[C@@]12COC(=O)C(=C)[C@@H]1[C@H]1OC(=O)C(=C)[C@@H]1[C@@H](OC(C)=O)C2` [VERNOLEPIN ACETATE], with 5.07; and `C=C1C(=O)O[C@H]2[C@H]1[C@H](OC(=O)/C(C)=C\C)C[C@@]1(CO1)[C@@H]1[C@H](O)[C@H]3O[C@@]3(C)[C@]21O`, with 6.20.
Regarding `C=C1C(=O)O[C@@H]2[C@H]1[C@@H](O)C[C@H](C)[C@@H]1CCC(=O)[C@@]21C` [DESACETYLCONFERTIFLORIN], the pEC50 was 5.06.
For the molecule `C=C[C@@]12COC(=O)C(=C)[C@@H]1[C@H]1OC(=O)C(=C)[C@@H]1[C@@H](O)C2` [VERNOLEPIN], the pEC50 was 5.19.
Consider `C=C1C(=O)O[C@H]2C[C@@H](C)[C@@H]3C=CC(=O)[C@@]3(C)[C@H](O)[C@H]12` [MEXICANIN I], for which the pEC50 was 5.90.
In the case of `C=C1C(=O)O[C@@H]2/C=C(\C)[C@H](O)C/C=C(\C)CC[C@@H]12` [TAMAULIPIN B] it was 4.98; in that of `C=C1C(=O)O[C@H]2[C@H]1[C@H](OC(=O)/C(C)=C\C)C[C@]1(CO1)[C@@H]1[C@H](OC(C)=O)C=C(C)[C@]21O` [EUPAROTIN ACETATE], 6.28.
With `C=C1C(=O)O[C@@H]2/C=C3\CCC4OC4(C[C@H](OC(=O)C(C)C)[C@@H]12)C(O)OC3` (some centres undefined) [VERNOMYGDIN], the pEC50 was 5.39.
Regarding `C=C1C(=O)O[C@@H]2/C=C(\C)CC/C=C(\C)CC[C@@H]12` [COSTUNOLIDE], the pEC50 is 5.61.
Consider `C=C1C(=O)O[C@H]2[C@H]1[C@@H](OC(=O)C=C(C)C)CC1=C[C@@H](C[C@@]3(C)O[C@H]23)OC1=O` [ELEPHANTIN], for which the pEC50 is 5.49.
Then `C=C1C(=O)O[C@@H]2C[C@@H](C)[C@@H]3C=CC(=O)[C@@]3(C)[C@@H](O)[C@H]12` [HELENALIN], with 6.12; and `C=C1[C@@H]2[C@H]3OC(=O)C(=C)[C@@H]3CCC(=C)[C@@H]2C[C@@H]1O[C@@H]1O[C@H](COC(C)=O)[C@@H](OC(C)=O)[C@H](OC(C)=O)[C@H]1OC(C)=O` [VERNOFLEXUOSIDE TETRA ACETYL], with 5.06.
Consider `C=C1CC(OC(=O)/C(C)=C/C)C2C(=C)C(=O)OC2/C=C(\C)C(O)CC1O` (centres undefined) [HYDROXYISONOBILIN], for which the pEC50 is 5.43.
Consider `C=C1[C@H](O)C[C@H](O)[C@]2(C)CC[C@@H]3[C@H](OC(=O)[C@H]3C)[C@@H]12` [ERIVANIN], for which the pEC50 is 5.96.
In the case of `C=C1C(=O)O[C@@H]2/C=C(\C)C[C@H](O)/C=C(\C)CC[C@@H]12` [TAMAULIPIN A], the pEC50 was 5.29.
